This note sets out measurements from US20080139558A1, “QUINOLONES USEFUL AS INDUCIBLE NITRIC OXIDE SYNTHASE INHIBITORS” (KALYPSYS, INC., priority 2006, published 2008).

The target in the assay is T1, human iNOS (Homo sapiens, UniProt P35228).
T1 construct: expressed in transfected cells; host or cells: HEK293
T1 sequence (P35228 whole entry): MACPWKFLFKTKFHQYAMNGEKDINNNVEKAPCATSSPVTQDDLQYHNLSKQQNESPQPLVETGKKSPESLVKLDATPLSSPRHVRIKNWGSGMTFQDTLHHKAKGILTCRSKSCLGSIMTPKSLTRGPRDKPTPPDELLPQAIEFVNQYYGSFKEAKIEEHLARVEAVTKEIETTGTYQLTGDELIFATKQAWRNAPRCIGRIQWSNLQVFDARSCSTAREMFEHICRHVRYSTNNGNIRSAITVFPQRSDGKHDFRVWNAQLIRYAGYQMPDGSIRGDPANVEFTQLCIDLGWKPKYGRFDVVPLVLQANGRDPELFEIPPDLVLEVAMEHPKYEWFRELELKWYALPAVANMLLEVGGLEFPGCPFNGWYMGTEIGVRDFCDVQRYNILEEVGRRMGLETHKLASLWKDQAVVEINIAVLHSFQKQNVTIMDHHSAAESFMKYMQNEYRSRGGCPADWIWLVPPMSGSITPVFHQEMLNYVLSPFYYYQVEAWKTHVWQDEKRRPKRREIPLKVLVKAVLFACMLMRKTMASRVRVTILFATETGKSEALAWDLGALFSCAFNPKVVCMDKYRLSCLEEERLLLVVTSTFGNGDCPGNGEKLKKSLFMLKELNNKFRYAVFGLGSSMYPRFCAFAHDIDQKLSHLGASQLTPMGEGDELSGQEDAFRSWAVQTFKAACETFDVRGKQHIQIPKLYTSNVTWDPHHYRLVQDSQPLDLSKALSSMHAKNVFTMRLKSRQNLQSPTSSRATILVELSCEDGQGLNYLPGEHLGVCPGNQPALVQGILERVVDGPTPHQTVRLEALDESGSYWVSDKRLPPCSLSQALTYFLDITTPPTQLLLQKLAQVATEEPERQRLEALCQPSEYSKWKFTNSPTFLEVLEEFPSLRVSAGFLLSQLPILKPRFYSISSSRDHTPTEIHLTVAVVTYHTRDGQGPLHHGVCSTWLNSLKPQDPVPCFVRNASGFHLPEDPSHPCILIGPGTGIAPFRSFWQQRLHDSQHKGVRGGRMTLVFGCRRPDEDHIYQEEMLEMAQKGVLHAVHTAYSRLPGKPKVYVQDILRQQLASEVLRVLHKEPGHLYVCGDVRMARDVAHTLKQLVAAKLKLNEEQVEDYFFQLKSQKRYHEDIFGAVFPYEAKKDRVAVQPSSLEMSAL
Briefly: DAN assay of nitric oxide production (hiNOS). The assay is classed as cell-based. The following applies: enzyme expressed in HEK293 cells transiently transfected with human iNOS. The method in brief:
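Human iNOS transiently expressed in HEK293 cells; NO production quantified as nitrite via 2,3-diaminonaphthalene reaction forming fluorescent naphthotriazole.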
For the compound `Cc1ncsc1C(=O)N(Cc1cc(=O)[nH]c2c(Br)ccc(F)c12)c1cccc(Cl)c1` [Example 107, N-((8-Bromo-5-fluoro-2-oxo-1,2-dihydroquinolin-4-yl)methyl)-N-(3-chlorophenyl)-4-methylthiazole-5-carboxamide], the 50% effective concentration (EC50) was > 5 µM.

Consider `Cc1ncsc1C(=O)N(Cc1c(F)c(=O)[nH]c2c(F)cccc12)c1cccc(Cl)c1` [Example 108, N-(3-Chlorophenyl)-N-((3,8-difluoro-2-oxo-1,2-dihydroquinolin-4-yl)methyl)-4-methylthiazole-5-carboxamide], for which the EC50 was ≤ 5 µM.

For `Cc1ncsc1C(=O)N(Cc1cc(=O)[nH]c2cc(F)c(F)cc12)c1cccc(Cl)c1` [Example 109, N-(3-Chlorophenyl)-N-((6,7-difluoro-2-oxo-1,2-dihydroquinolin-4-yl)methyl)-4-methylthiazole-5-carboxamide], the concentration for a half-maximal effect (EC50) is ≤ 5 µM.

Turning to `Cc1nnsc1C(=O)N(Cc1cc(=O)[nH]c2c(F)c(F)ccc12)c1cccc(Cl)c1` [Example 110, N-(3-Chlorophenyl)-N-((7,8-difluoro-2-oxo-1,2-dihydroquinolin-4-yl)methyl)-4-methyl-1,2,3-thiadiazole-5-carboxamide], the concentration giving a half-maximal response (EC50) is ≤ 5 µM.

On to `Cc1ncsc1C(=O)N(Cc1cc(=O)[nH]c2cccc(F)c12)c1cccc(Cl)c1` [Example 111, N-(3-Chlorophenyl)-N-((5-fluoro-2-oxo-1,2-dihydroquinolin-4-yl)methyl)-4-methylthiazole-5-carboxamide], for which the 50% effective concentration (EC50) is ≤ 5 µM.

With `Cn1nccc1C(=O)N(Cc1cc(=O)[nH]c2c(F)c(F)ccc12)c1cccc(Cl)c1` [Example 112, N-(3-Chlorophenyl)-N-((7,8-difluoro-2-oxo-1,2-dihydroquinolin-4-yl)methyl)-1-methyl-1H-pyrazole-5-carboxamide], the EC50 was > 5 µM.

Regarding `Cc1ccncc1C(=O)N(Cc1c(F)c(=O)[nH]c2c(F)cccc12)c1cccc(Cl)c1` [Example 114, N-(3-Chlorophenyl)-N-((3,8-difluoro-2-oxo-1,2-dihydroquinolin-4-yl)methyl)-4-methylnicotinamide], the EC50 was ≤ 5 µM.

`Cc1ncsc1C(=O)N(Cc1c(F)c(=O)[nH]c2c(F)c(F)ccc12)c1cccc(Cl)c1` [Example 115, N-(3-Chlorophenyl)-4-methyl-N-((3,7,8-trifluoro-2-oxo-1,2-dihydroquinolin-4-yl)methyl)thiazole-5-carboxamide]: the EC50 was ≤ 5 µM.

Consider `Cc1ccncc1C(=O)N(Cc1c(F)c(=O)[nH]c2c(F)c(F)ccc12)c1cccc(Cl)c1` [Example 116, N-(3-Chlorophenyl)-4-methyl-N-((3,7,8-trifluoro-2-oxo-1,2-dihydroquinolin-4-yl)methyl)nicotinamide], for which the EC50 was ≤ 5 µM.

On to `Cc1ncsc1C(=O)N(Cc1cc(=O)n(C)c2c(F)cccc12)c1cccc(Cl)c1` [Example 117, N-(3-Chlorophenyl)-N-((8-fluoro-1-methyl-2-oxo-1,2-dihydroquinolin-4-yl)methyl)-4-methylthiazole-5-carboxamide], for which the EC50 was > 5 µM.

For `O=c1cc(Cn2c(-c3cccnc3)nc3ccccc32)c2cccc(F)c2[nH]1` [Example 118, 8-Fluoro-4-((2-(pyridin-3-yl)-1H-benzo[d]imidazol-1-yl)methyl)quinolin-2(1H)-one], the 50% effective concentration (EC50) was > 5 µM.

As to `Cc1ncsc1-c1nc2ccccc2n1Cc1cc(=O)[nH]c2c(F)c(F)ccc12` [Example 119, 7,8-Difluoro-4-((2-(4-methylthiazol-5-yl)-1H-benzo[d]imidazol-1-yl)methyl)quinolin-2(1H)-one], the 50% effective concentration (EC50) was ≤ 5 µM.

Regarding `O=c1cc(Cn2c(-c3cccnc3)nc3ccccc32)c2ccc(F)c(F)c2[nH]1` [Example 120, 7,8-Difluoro-4-((2-(pyridin-3-yl)-1H-benzo[d]imidazol-1-yl)methyl)quinolin-2(1H)-one], the half-maximal effective concentration (EC50) is > 5 µM.

As to `Cc1ccncc1-c1nc2ccccc2n1Cc1cc(=O)[nH]c2c(F)c(F)ccc12` [Example 121, 7,8-Difluoro-4-((2-(4-methylpyridin-3-yl)-1H-benzo[d]imidazol-1-yl)methyl)quinolin-2(1H)-one], the EC50 was > 5 µM.

Regarding `Cn1cncc1-c1nc2ccccc2n1Cc1cc(=O)[nH]c2c(F)c(F)ccc12` [Example 122, 7,8-Difluoro-4-((2-(1-methyl-1H-imidazol-5-yl)-1H-benzo[d]imidazol-1-yl)methyl)quinolin-2(1H)-one], the EC50 is ≤ 5 µM.

Take `Cc1ncsc1-c1nc2ccccc2n1Cc1cc(=O)[nH]c2ccccc12` [Example 124, 4-((2-(4-Methylthiazol-5-yl)-1H-benzo[d]imidazol-1-yl)methyl)quinolin-2(1H)-one]: the half-maximal effective concentration (EC50) was ≤ 5 µM.

For the compound `O=c1cc(Cn2c(-c3cccnc3)nc3ccccc32)c2ccccc2[nH]1` [Example 125, 4-((2-(Pyridin-3-yl)-1H-benzo[d]imidazol-1-yl)methyl)quinolin-2(1H)-one], the concentration giving a half-maximal response (EC50) is > 5 µM.

Regarding `O=C(c1nnc[nH]1)N(Cc1cc(=O)[nH]c2c(F)c(F)ccc12)c1cccc(Cl)c1` [Example 168, N-(3-Chlorophenyl)-N-[(7,8-difluoro-2-oxo-1,2-dihydroquinolin-4-yl)methyl]-4H-1,2,4-triazole-3-carboxamide], the EC50 was ≤ 5 µM.

Turning to `Cn1nnc(C(=O)N(Cc2cc(=O)[nH]c3c(F)c(F)ccc23)c2cccc(Cl)c2)n1` [Example 169], the 50% effective concentration (EC50) was ≤ 5 µM.

For `Cc1ncsc1C(=O)N(Cc1cc(=O)[nH]c2c(F)c(F)ccc12)c1ccc(N2CCCCC2)cc1` [Example 170, N-((7,8-Difluoro-2-oxo-1,2-dihydroquinolin-4-yl)methyl)-4-methyl-N-(4-(piperidin-1-yl)phenyl)thiazole-5-carboxamide], the EC50 was > 5 µM.

For the compound `Cc1ncsc1C(=O)N(Cc1cc2cccc(F)c2[nH]c1=O)c1cccc(Cl)c1` [Example 171, N-(3-Chlorophenyl)-N-((8-fluoro-2-oxy-1,2-dihydroquinolin-3-yl)methyl)-4-methylthiazole-5-carboxamide], the EC50 is > 5 µM.

`Cc1ccncc1C(=O)N(Cc1cc2cccc(F)c2[nH]c1=O)c1cccc(Cl)c1` [Example 172, N-(3-Chlorophenyl)-N-((8-fluoro-2-oxo-1,2-dihydroquinolin-3-yl)methyl)-4-methylnicotinamide]: the EC50 was > 5 µM.

For the compound `Cc1oncc1C(=O)N(Cc1cc2cccc(F)c2[nH]c1=O)c1cccc(Cl)c1` [Example 173, N-(3-Chlorophenyl)-N-((8-fluoro-2-oxo-1,2-dihydroquinolin-3-yl)methyl)-5-methylisoxazole-4-carboxamide], the 50% effective concentration (EC50) was > 5 µM.

Turning to `Cc1ncsc1C(=O)N(Cc1cc2cccc(F)c2[nH]c1=O)c1ccc(N2CCCCC2)cc1` [Example 174, N-((8-Fluoro-2-oxo-1,2-dihydroquinolin-3-yl)methyl)-4-methyl-N-(piperidin-1-yl)phenylthiazole-5-carboxamide], the EC50 is > 5 µM.

Take `Cc1ncsc1C(=O)N(Cc1cc(=O)[nH]c2c(F)c(F)ccc12)c1ccccc1` [Example 175, N-Phenyl-N-((7,8-fluoro-2-oxo-1,2-dihydroquinolin-4-yl)methyl)-4-methylthiazole-5-carboxamide]: the EC50 was ≤ 5 µM.

On to `COc1ccc(N(Cc2cc(=O)[nH]c3c(F)c(F)ccc23)C(=O)c2scnc2C)cc1Cl` [Example 176, N-(3-Chloro4-methoxylphenyl)-N-((7,8-fluoro-2-oxo-1,2-dihydroquinolin-4-yl)methyl)-4-methylthiazole-5-carboxamide], for which the EC50 is ≤ 5 µM.

Regarding `Cc1ccc(N(Cc2cc(=O)[nH]c3c(F)c(F)ccc23)C(=O)c2scnc2C)cc1Cl` [Example 177, N-(3-Chloro4-methylphenyl)-N-((7,8-fluoro-2-oxo-1,2-dihydroquinolin-4-yl)methyl)-4-methylthiazole-5-carboxamide], the EC50 is ≤ 5 µM.

Consider `Cc1ncsc1C(=O)N(Cc1cc(=O)[nH]c2c(F)c(F)ccc12)c1cc(F)cc(F)c1` [Example 178, N-(3,5-Difluorophenyl)-N-((7,8-fluoro-2-oxo-1,2-dihydroquinolin-4-yl)methyl)-4-methylthiazole-5-carboxamide], for which the EC50 is ≤ 5 µM.

As to `Cc1ncsc1C(=O)N(Cc1cc(=O)[nH]c2c(F)c(F)ccc12)c1cccc2ccccc12` [Example 179, N-(1-Naphthalene)-N-((7,8-fluoro-2-oxo-1,2-dihydroquinolin-4-yl)methyl)-4-methylthiazole-5-carboxamide], the half-maximal effective concentration (EC50) is ≤ 5 µM.

For the compound `COc1cccc(N(Cc2cc(=O)[nH]c3c(F)c(F)ccc23)C(=O)c2scnc2C)c1` [Example 180, N-(3-Methoxylphenyl)-N-((7,8-fluoro-2-oxo-1,2-dihydroquinolin-4-yl)methyl)-4-methylthiazole-5-carboxamide], the EC50 is ≤ 5 µM.

On to `Cc1ncsc1C(=O)N(Cc1cc(=O)[nH]c2c(F)c(F)ccc12)c1ccc(F)c(Cl)c1` [Example 181, N-(3-Chloro-4-fluorophenyl)-N-((7,8-fluoro-2-oxo-1,2-dihydroquinolin-4-yl)methyl)-4-methylthiazole-5-carboxamide], for which the EC50 is ≤ 5 µM.

On to `Cc1ncsc1C(=O)N(Cc1cc(=O)[nH]c2c(F)c(F)ccc12)c1ccc(C#N)c(Cl)c1` [Example 182, N-(3-Chloro-4-cyanophenyl)-N-((7,8-fluoro-2-oxo-1,2-dihydroquinolin-4-yl)methyl)-4-methylthiazole-5-carboxamide], for which the EC50 is ≤ 5 µM.

Regarding `Cc1ncsc1C(=O)N(Cc1cc(=O)[nH]c2c(F)c(F)ccc12)c1ccc(F)cc1` [Example 183, N-(4-Fluorolphenyl)-N-((7,8-fluoro-2-oxo-1,2-dihydroquinolin-4-yl)methyl)-4-methylthiazole-5-carboxamide], the concentration for a half-maximal effect (EC50) was ≤ 5 µM.

As to `Cc1ncsc1C(=O)N(Cc1cc(=O)[nH]c2c(F)c(F)ccc12)c1cccc(Cl)c1C` [Example 184, N-(3-Chloro-2-methylphenyl)-N-((7,8-difluoro-2-oxo-1,2-dihydroquinolin-4-yl)methyl)-4-methylthiazole-5-carboxamide], the EC50 is ≤ 5 µM.

Take `Cc1ncsc1C(=O)N(Cc1cc(=O)[nH]c2c(F)c(F)ccc12)C(C)C` [Example 185]: the concentration for a half-maximal effect (EC50) was > 5 µM.

A word on the EC50: it is the concentration giving half of the maximal effect. Low values mean an effect from little substance, high ones a need for much substance.
